Laboratory results reported in the NIST ThermoML archive (doi:10.1021/acs.jced.7b00971).

Legend:
[1] = 101 kPa, Liquid, Capillary tube (Ostwald / Ubbelohde) method
[2] = xn = mol fraction of the nth substance listed; conditions: 101 kPa, Liquid, Capillary tube (Ostwald / Ubbelohde) method

Cc1ccccc1C [1,2-dimethylbenzene]
[1]
Conditions | viscosity [mPa·s]
303.15 K | 0.71
308.15 K | 0.666
313.15 K | 0.628
318.15 K | 0.591
323.15 K | 0.56

Cc1ccccc1C [1,2-dimethylbenzene] + CO
viscosity [mPa·s], [2]
Conditions | x2 = 0 | x2 = 0.1007 | x2 = 0.2013 | x2 = 0.2961 | x2 = 0.403 | x2 = 0.5003 | x2 = 0.601 | x2 = 0.7025 | x2 = 0.8006 | x2 = 0.9013
303.15 K | 0.71 | 0.684 | 0.674 | 0.671 | 0.666 | 0.663 | 0.655 | 0.638 | 0.61 | 0.567
308.15 K | 0.666 | 0.641 | 0.631 | 0.626 | 0.621 | 0.617 | 0.607 | 0.595 | 0.567 | 0.53
313.15 K | 0.628 | 0.603 | 0.591 | 0.587 | 0.582 | 0.577 | 0.569 | 0.554 | 0.531 | 0.495
318.15 K | 0.591 | 0.566 | 0.555 | 0.55 | 0.543 | 0.538 | 0.531 | 0.516 | 0.494 | 0.462
323.15 K | 0.56 | 0.535 | 0.523 | 0.517 | 0.511 | 0.506 | 0.496 | 0.484 | 0.462 | 0.434

Cc1cccc(C)c1 [1,3-dimethylbenzene]
[1]
Conditions | viscosity [mPa·s]
303.15 K | 0.554
308.15 K | 0.524
313.15 K | 0.498
318.15 K | 0.472
323.15 K | 0.452

Cc1cccc(C)c1 [1,3-dimethylbenzene] + CO
viscosity [mPa·s], [2]
Conditions | x2 = 0 | x2 = 0.1008 | x2 = 0.2003 | x2 = 0.2999 | x2 = 0.4 | x2 = 0.4997 | x2 = 0.6003 | x2 = 0.7001 | x2 = 0.8001 | x2 = 0.9012
303.15 K | 0.554 | 0.539 | 0.542 | 0.548 | 0.553 | 0.56 | 0.566 | 0.57 | 0.565 | 0.546
308.15 K | 0.524 | 0.51 | 0.51 | 0.514 | 0.519 | 0.526 | 0.53 | 0.532 | 0.526 | 0.509
313.15 K | 0.498 | 0.483 | 0.483 | 0.485 | 0.488 | 0.493 | 0.496 | 0.497 | 0.492 | 0.477
318.15 K | 0.472 | 0.456 | 0.456 | 0.457 | 0.46 | 0.462 | 0.465 | 0.466 | 0.46 | 0.445
323.15 K | 0.452 | 0.435 | 0.433 | 0.433 | 0.434 | 0.437 | 0.437 | 0.437 | 0.432 | 0.419

Cc1ccc(C)cc1 [1,4-dimethylbenzene]
[1]
Conditions | viscosity [mPa·s]
303.15 K | 0.574
308.15 K | 0.542
313.15 K | 0.514
318.15 K | 0.486
323.15 K | 0.461

Cc1ccc(C)cc1 [1,4-dimethylbenzene] + CO
viscosity [mPa·s], [2]
Conditions | x2 = 0 | x2 = 0.1001 | x2 = 0.1998 | x2 = 0.3015 | x2 = 0.4005 | x2 = 0.5 | x2 = 0.5999 | x2 = 0.7005 | x2 = 0.8 | x2 = 0.8984
303.15 K | 0.574 | 0.559 | 0.556 | 0.563 | 0.567 | 0.573 | 0.576 | 0.577 | 0.568 | 0.549
308.15 K | 0.542 | 0.527 | 0.524 | 0.527 | 0.529 | 0.533 | 0.536 | 0.536 | 0.529 | 0.512
313.15 K | 0.514 | 0.498 | 0.494 | 0.496 | 0.498 | 0.501 | 0.504 | 0.502 | 0.495 | 0.479
318.15 K | 0.486 | 0.469 | 0.465 | 0.466 | 0.467 | 0.469 | 0.469 | 0.469 | 0.462 | 0.447
323.15 K | 0.461 | 0.445 | 0.439 | 0.44 | 0.44 | 0.443 | 0.443 | 0.441 | 0.434 | 0.42

CO [methanol]
[1]
Conditions | viscosity [mPa·s]
303.15 K | 0.513
308.15 K | 0.48
313.15 K | 0.45
318.15 K | 0.422
323.15 K | 0.397

CO [methanol] + Cc1ccc(C)cc1
[2], x1 = 1
Conditions | viscosity [mPa·s]
303.15 K | 0.513
308.15 K | 0.48
313.15 K | 0.45
318.15 K | 0.422
323.15 K | 0.397

CO [methanol] + Cc1cccc(C)c1
[2], x1 = 1
Conditions | viscosity [mPa·s]
303.15 K | 0.513
308.15 K | 0.48
313.15 K | 0.45
318.15 K | 0.422
323.15 K | 0.397

CO [methanol] + Cc1ccccc1C
[2], x1 = 1
Conditions | viscosity [mPa·s]
303.15 K | 0.513
308.15 K | 0.48
313.15 K | 0.45
318.15 K | 0.422
323.15 K | 0.397
